What follows are molecules tested against T1, CETP (Homo sapiens, UniProt P11597) (assay: CETP inhibitory activity, BODIPY-CE fluorescence assay (CETP RP Activity Assay Kit)). Conditions: read-out: IC50 (CETP inhibition).
T1 construct: purchased Roar, New York, NY, USA RB-RPAK
T1 sequence (P11597 18-493): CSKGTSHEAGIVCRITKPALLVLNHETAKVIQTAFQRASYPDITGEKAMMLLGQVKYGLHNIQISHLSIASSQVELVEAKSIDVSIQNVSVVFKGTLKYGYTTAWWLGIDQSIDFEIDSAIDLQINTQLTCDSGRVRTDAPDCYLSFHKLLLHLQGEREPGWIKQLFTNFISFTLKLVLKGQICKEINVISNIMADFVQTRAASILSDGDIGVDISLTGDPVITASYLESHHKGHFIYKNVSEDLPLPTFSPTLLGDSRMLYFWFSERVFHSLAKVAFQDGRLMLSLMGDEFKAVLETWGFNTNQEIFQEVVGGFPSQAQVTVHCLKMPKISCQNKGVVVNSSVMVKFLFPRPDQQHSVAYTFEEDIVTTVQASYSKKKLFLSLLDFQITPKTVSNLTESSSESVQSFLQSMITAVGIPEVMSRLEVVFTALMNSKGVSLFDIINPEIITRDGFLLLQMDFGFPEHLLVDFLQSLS
Type: biochemical
Protocol: All tested compounds were dissolved in 100% DMSO, making sure the compound was dissolved totally. The solution was vibrated hard on an oscillator for more than 30 s and then stored in a nitrogen cabinet. The stock solutions (10 mM) were diluted with DMSO for an 8-point titration (1:5 serial dilutions) in a 96-well dilution plate. […] Compounds were tested at eight concentrations, and the fluorescence intensity were measured using a fluorometer (ExEm = 465/535 nm). The IC50 was determined from a curve fit of the data with each concentration tested three times.

Compound | IC50
COc1ccc(C(C)C)cc1C1=C(CN(Cc2cc(C(F)(F)F)cc(C(F)(F)F)c2)c2nn[nH]n2)CC(C)(C)CC1 [Compound 12, N-(3,5-Bis(trifluoromethyl)benzyl)-N-((2-(5-isopropyl-2-methoxyphenyl)-5,5-dimethylcyclohex-1-enyl)-methyl)-2H-tetrazol-5-amine] | 2840 ± 40 nM
COC(=O)Cn1nnc(N(CC2=C(c3cc(C(C)C)ccc3OC)CCC(C)(C)C2)Cc2cc(C(F)(F)F)cc(C(F)(F)F)c2)n1 [Compound 13] | > 50000 nM
CCOC(=O)CCCn1nnc(N(CC2=C(c3cc(C(C)C)ccc3OC)CCC(C)(C)C2)Cc2cc(C(F)(F)F)cc(C(F)(F)F)c2)n1 [Compound 14, N-(3,5-Bis(trifluoromethyl)benzyl)-N-((2-(5-isopropyl-2-methoxyphenyl)-5,5-dimethylcyclohex-1-enyl)-methyl)-2H-tetrazol-5-amine-2-butyric acid ethyl ester] | > 50000 nM
COc1ccc(C(C)C)cc1C1=C(CN(Cc2cc(C(F)(F)F)cc(C(F)(F)F)c2)c2nnn(CCN)n2)CC(C)(C)CC1 [Compound 15, 2-(2-Aminoethyl)-N-(3,5-Bis(trifluoromethyl)benzyl)-N-((2-(5-isopropyl-2-methoxyphenyl)-5,5-dimethyl-cyclohex-1-enyl)methyl)-2H-tetrazol-5-amine] | 1920 ± 100 nM
COc1ccc(C(C)C)cc1C1=C(CN(Cc2cc(C(F)(F)F)cc(C(F)(F)F)c2)c2nnn(CCS(C)(=O)=O)n2)CC(C)(C)CC1 [Compound 16, N-(3,5-Bis(trifluoromethyl)benzyl)-N-((2-(5-isopropyl-2-methoxyphenyl)-5,5-dimethylcyclohex-1-enyl)-methyl)-2-(2-(methylsulfonyl)ethyl)-2H-tetrazol-5-amine] | 1200 ± 10 nM
COc1ccc(C(C)C)cc1C1=C(CN(Cc2cc(C(F)(F)F)cc(C(F)(F)F)c2)c2nnn(CCCC(=O)O)n2)CC(C)(C)CC1 [Compound 18, N-(3,5-Bis(trifluoromethyl)benzyl)-N-((2-(5-isopropyl-2-methoxyphenyl)-5,5-dimethylcyclohex-1-enyl)-methyl)-2H-tetrazol-5-amine-2-butyric acid] | 1600 ± 20 nM

Continued, values first:

IC50 | Compound
730 ± 90 nM | COc1ccc(C(C)C)cc1C1=C(CN(Cc2cc(C(F)(F)F)cc(C(F)(F)F)c2)c2nnn(CCO)n2)CC(C)(C)CC1 [Compound 19, N-(3,5-Bis(trifluoromethyl)benzyl)-N-((2-(5-isopropyl-2-methoxyphenyl)-5,5-dimethylcyclohex-1-enyl)-methyl)-2H-tetrazol-5-amine-2-ethyl alcohol]
5760 ± 30 nM | COc1ccc(C(C)C)cc1C1=C(CN(Cc2cc(C(F)(F)F)cc(C(F)(F)F)c2)c2nnn(CCCCO)n2)CC(C)(C)CC1 [Compound 20]
20060 ± 120 nM | COc1ccc(C(C)C)cc1C1=C(CN(Cc2cc(C(F)(F)F)cc(C(F)(F)F)c2)c2nnn(CC(N)=O)n2)CC(C)(C)CC1 [Compound 21, 2-(5-((3,5-Bis(trifluoromethyl)benzyl)((2-(5-isopropyl-2-methoxyphenyl)-5,5-dimethylcyclohex-1-enyl)-methyl)amino)-2H-tetrazol-2-yl)acetamide]
720 ± 60 nM | COc1ccc(C(C)C)cc1C1=C(CN(Cc2cc(C(F)(F)F)cc(C(F)(F)F)c2)c2noc(C)n2)CC(C)(C)CC1 [Compound 22, N-(3,5-Bis(trifluoromethyl)benzyl)-N-((2-(5-isopropyl-2-methoxyphenyl)-5,5-dimethylcyclohex-1-enyl)-methyl)-5-methyl-1,2,4-oxadiazol-3-amine]
> 50000 nM | COc1ccc(C(C)C)cc1C1=C(CN(Cc2cc(C(F)(F)F)cc(C(F)(F)F)c2)C2CCN(CCO)CC2)CC(C)(C)CC1 [Compound 32, N-(3,5-Bis(trifluoromethyl)benzyl)-N-((2-(5-isopropyl-2-methoxyphenyl)-5,5-dimethylcyclohex-1-enyl)-methyl)piperidin-4-amine-1-ethyl alcohol]
